The target of one experiment is T1, rat P2X3 receptor (Rattus norvegicus, UniProt P49654).
T1 construct: expressed in transfected cells; host or cells: CHO-K1
T1 sequence (P49654 1-397): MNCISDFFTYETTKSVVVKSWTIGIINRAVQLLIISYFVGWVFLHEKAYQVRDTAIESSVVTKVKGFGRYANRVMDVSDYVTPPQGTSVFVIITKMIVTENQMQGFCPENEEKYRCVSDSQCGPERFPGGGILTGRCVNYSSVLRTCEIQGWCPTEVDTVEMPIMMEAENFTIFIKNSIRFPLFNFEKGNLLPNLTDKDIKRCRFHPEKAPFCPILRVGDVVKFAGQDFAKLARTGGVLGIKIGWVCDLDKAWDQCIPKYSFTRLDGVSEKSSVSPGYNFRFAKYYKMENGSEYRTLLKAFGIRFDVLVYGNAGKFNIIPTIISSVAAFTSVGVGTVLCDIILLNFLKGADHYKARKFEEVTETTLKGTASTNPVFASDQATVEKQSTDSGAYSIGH
The experiment can be described thus: P2X3/P2X2/3 FLIPR (Fluorometric Imaging Plate Reader) Assay, P2X3. Type of experiment: cell-based. The settings on record: CHO-K1 cells transfected with rat P2X3; agonist α,β-meATP 1 μM; Table 1; read-out: P2X3 pKi (converted). On the procedure:
(§1) P2X3/P2X2/3 FLIPR (Fluorometric Imaging Plate Reader) Assay
(§2) CHO-K1 cells were transfected with cloned rat P2X3 or human P2X2/3 receptor subunits and passaged in flasks. 18-24 hours before the FLIPR experiment, cells were released from their flasks, centrifuged, and resuspended in nutrient medium at 2.5×10^5 cells/ml. The cells were aliquoted into black-walled 96-well plates at a density of 50,000 cells/well and incubated overnight in 5% CO2 at 37° C. On the day of the experiment, cells were washed in FLIPR buffer (calcium- and magnesium-free Hank's balanced salt solution, 10 mM HEPES, 2 mM CaCl2, 2.5 mM probenecid; FB). Each well received 100 μl FB and 100 μl of the fluorescent dye Fluo-3 AM [2 μM final conc.]. After a 1 hour dye loading incubation at 37° C., the cells were washed 4 times with FB, and a final 75 μl/well FB was left in each well.
(§3) Test compounds (dissolved in DMSO at 10 mM and serially diluted with FB) or vehicle were added to each well (25 μl of a 4× solution) and allowed to equilibrate for 20 minutes at room temperature. The plates were then placed in the FLIPR and a baseline fluorescence measurement (excitation at 488 nm and emission at 510-570 nm) was obtained for 10 seconds before a 100 μl/well agonist or vehicle addition. The agonist was a 2× solution of α,β-meATP producing a final concentration of 1 μM (P2X3) or 5 μM (P2X2/3). Fluorescence was measured for an additional 2 minutes at 1 second intervals after agonist addition. A final addition of ionomycin (5 μM, final concentration) was made to each well of the FLIPR test plate to establish cell viability and maximum fluorescence of dye-bound cytosolic calcium. Peak fluorescence in response to the addition of α,β-meATP (in the absence and presence of test compounds) was measured and inhibition curves generated using nonlinear regression. PPADS, a standard P2X antagonist, was used as a positive control.

A further experiment addresses T2, human P2X2/3 receptor (Homo sapiens, UniProt P56373+Q9UBL9).
T2 construct: expressed in transfected cells; host or cells: CHO-K1
T2 sequence (Q9UBL9 1-471): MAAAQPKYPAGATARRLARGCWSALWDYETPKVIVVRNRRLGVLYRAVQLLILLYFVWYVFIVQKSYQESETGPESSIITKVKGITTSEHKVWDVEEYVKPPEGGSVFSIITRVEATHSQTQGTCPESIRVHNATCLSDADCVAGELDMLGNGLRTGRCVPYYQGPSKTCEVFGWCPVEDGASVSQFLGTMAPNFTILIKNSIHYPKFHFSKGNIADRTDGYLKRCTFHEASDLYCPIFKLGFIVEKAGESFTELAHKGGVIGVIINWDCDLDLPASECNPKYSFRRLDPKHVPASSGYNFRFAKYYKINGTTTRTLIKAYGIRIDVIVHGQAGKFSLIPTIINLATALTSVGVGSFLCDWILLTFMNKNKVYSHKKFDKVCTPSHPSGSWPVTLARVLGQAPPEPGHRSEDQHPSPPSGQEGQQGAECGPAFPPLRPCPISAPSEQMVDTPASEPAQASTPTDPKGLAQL
T2 sequence (P56373 1-397): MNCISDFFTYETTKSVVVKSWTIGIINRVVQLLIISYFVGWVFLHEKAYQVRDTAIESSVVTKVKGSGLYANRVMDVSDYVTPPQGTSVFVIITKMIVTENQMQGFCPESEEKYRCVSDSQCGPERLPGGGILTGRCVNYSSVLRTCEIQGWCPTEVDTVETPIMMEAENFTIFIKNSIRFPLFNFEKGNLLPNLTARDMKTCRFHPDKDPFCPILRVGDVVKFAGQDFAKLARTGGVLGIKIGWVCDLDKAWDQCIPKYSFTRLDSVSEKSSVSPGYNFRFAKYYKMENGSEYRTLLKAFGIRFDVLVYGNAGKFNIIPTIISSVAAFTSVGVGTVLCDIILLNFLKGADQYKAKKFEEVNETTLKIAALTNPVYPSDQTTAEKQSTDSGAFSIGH
The experiment can be described thus: P2X3/P2X2/3 FLIPR (Fluorometric Imaging Plate Reader) Assay, P2X2/3. Type of experiment: cell-based. How it is done:
as §1, §2, §3

Setting [1] is: CHO-K1 cells transfected with human P2X2/3, agonist α,β-meATP 5 μM, Table 1, read-out: P2X2/3 pKi (converted).

Results on 19 compounds are retold here after patent US8440708B2, “Triazole-substituted arylamides as P2X3 and P2X2/3 antagonists” (Roche Palo Alto LLC, priority 2007, dated 2013).

Read-outs that look alike come from different tables or passages of the source.

For the compound `Cc1ccc(-c2cc(C(=O)N[C@@H](C)CO)cc(-n3ncnc3-c3ccccc3)c2)nc1` [Compound 144, N-((S)-2-Hydroxy-1-methyl-ethyl)-3-(5-methyl-pyridin-2-yl)-5-(5-phenyl-[1,2,4]triazol-1-yl)-benzamide], the Ki on rat P2X3 receptor is 182 nM; on human P2X2/3 receptor (setting [1]) it was 8910 nM.

Take `Cc1ccc(-c2cc(C(=O)N[C@@H](C)c3cnccn3)cc(-n3ncnc3C(F)(F)F)c2)nc1` [Compound 180, 3-(5-Methyl-pyridin-2-yl)-N-((S)-1-pyrazin-2-yl-ethyl)-5-(5-trifluoromethyl-[1,2,4]triazol-1-yl)-benzamide]: the Ki is 6.61 nM on rat P2X3 receptor and 46.8 nM on human P2X2/3 receptor (setting [1]).

As to `Cc1ccc(-c2cc(C(=O)NC3CC3)cc(-n3ncnc3C(F)(F)F)c2)nc1` [Compound 96, N-Cyclopropyl-3-(5-methyl-pyridin-2-yl)-5-(5-trifluoromethyl-[1,2,4]triazol-1-yl)-benzamide], the values for the Ki on rat P2X3 receptor and at human P2X2/3 receptor (setting [1]) were 4.57 nM and 1260 nM, respectively.

`Cc1ccc(-c2cc(C(=O)NC(C)CO)cc(-n3nc(C)nc3C(C)C)c2)cc1` (stereo not drawn) [Compound 28, 5-(5-Isopropyl-3-methyl-[1,2,4]triazol-1-yl)-4′-methyl-biphenyl-3-carboxylic acid (2-hydroxy-1-methyl-ethyl)-amide]: the values for the Ki on rat P2X3 receptor and on human P2X2/3 receptor (setting [1]) were 64.6 nM and 10000 nM, respectively.

Consider `C[C@@H](CO)NC(=O)c1cc(-c2ccc(Cl)cn2)cc(-n2ncnc2C(F)F)c1` [Compound 78, 3-(5-Chloro-pyridin-2-yl)-5-(5-difluoromethyl-[1,2,4]triazol-1-yl)-N-((S)-2-hydroxy-1-methyl-ethyl)-benzamide], for which the Ki is 75.9 nM on rat P2X3 receptor and 8710 nM on human P2X2/3 receptor (setting [1]).

On to `Cc1ccc(-c2cc(C(=O)NC(C)CO)cc(-n3nncc3C(C)C)c2)c(F)c1` (stereo not drawn) [Compound 23, 2′-Fluoro-5-(5-isopropyl-[1,2,3]triazol-1-yl)-4′-methyl-biphenyl-3-carboxylic acid (2-hydroxy-1-methyl-ethyl)-amide], for which the Ki at rat P2X3 receptor is 5.75 nM; at human P2X2/3 receptor (setting [1]), 355 nM.

As for `Cc1ccc(-c2cc(C(=O)N[C@@H](C)CO)cc(-n3nncc3C(C)C)c2)c(F)c1` [Compound 24, 2′-Fluoro-5-(5-isopropyl-[1,2,3]triazol-1-yl)-4′-methyl-biphenyl-3-carboxylic acid ((S)-2-hydroxy-1-methyl-ethyl)-amide], the results for the Ki at rat P2X3 receptor and on human P2X2/3 receptor (setting [1]) were 3.31 nM and 324 nM, respectively.

For `Cc1ccc(-c2cc(C(=O)NC(C)c3cnccn3)cc(-n3ncnc3C(C)C)c2)c(F)c1` (stereo not drawn) [Compound 36, 2′-Fluoro-5-(5-isopropyl-[1,2,4]triazol-1-yl)-4′-methyl-biphenyl-3-carboxylic acid (1-pyrazin-2-yl-ethyl)-amide], the Ki on rat P2X3 receptor is 3.72 nM; at human P2X2/3 receptor (setting [1]), 22.9 nM; on human P2X2/3 receptor (text b666, CHO-K1 cells, α,β-meATP 5 μM, read-out: pKi for the P2X2/3 receptor (converted)) it was about 22.9 nM.

Regarding `Cc1ccc(-c2cc(C(=O)NC(C)c3cnccn3)cc(-n3ncnc3C(C)N(C)C)c2)nc1` (stereo not drawn) [Compound 142, 3-[5-(1-Dimethylamino-ethyl)-[1,2,4]triazol-1-yl]-5-(5-methyl-pyridin-2-yl)-N-(1-pyrazin-2-yl-ethyl)-benzamide], the Ki at rat P2X3 receptor is 9.12 nM; on human P2X2/3 receptor (setting [1]), 229 nM.

For `Cc1ccc(-c2cc(C(=O)N[C@@H](C)CO)cc(-c3ncnn3C(C)C)c2)cc1` [Compound 54, 5-(2-Isopropyl-2H-[1,2,4]triazol-3-yl)-4′-methyl-biphenyl-3-carboxylic acid (2-hydroxy-1-methyl-ethyl)-amide], the results for the Ki on rat P2X3 receptor and on human P2X2/3 receptor (setting [1]) were 21.4 nM and 2450 nM, respectively.

Regarding `COC[C@@H](C)NC(=O)c1cc(-c2ccc(C)cc2)cc(-n2cnnc2C(C)C)c1` [Compound 20, 5-(3-Isopropyl-[1,2,4]triazol-4-yl)-4′-methyl-biphenyl-3-carboxylic acid ((R)-2-methoxy-1-methyl-ethyl)-amide], the Ki is 372 nM at rat P2X3 receptor and 10000 nM at human P2X2/3 receptor (setting [1]).

In the case of `Cc1ccc(-c2cc(C(=O)NC(C)c3cnccn3)cc(-n3c(C)nnc3C(C)C)c2)cc1` (stereo not drawn) [Compound 31, 5-(3-Isopropyl-5-methyl-[1,2,4]triazol-4-yl)-4′-methyl-biphenyl-3-carboxylic acid (1-pyrazin-2-yl-ethyl)-amide], the Ki is 35.5 nM at rat P2X3 receptor and 398 nM on human P2X2/3 receptor (setting [1]).

On to `CCCc1ncnn1-c1cc(C(=O)NC2CC2)cc(-c2ccc(C)cn2)c1` [Compound 113, N-Cyclopropyl-3-(5-methyl-pyridin-2-yl)-5-(5-propyl-[1,2,4]triazol-1-yl)-benzamide], for which the values for the Ki at rat P2X3 receptor and at human P2X2/3 receptor (setting [1]) were 4.57 nM and 1580 nM, respectively.

Turning to `CC(NC(=O)c1cc(-c2ccc(Cl)cn2)cc(-n2ncnc2CF)c1)c1cnccn1` (stereo not drawn) [Compound 91, 3-(5-Chloro-pyridin-2-yl)-5-(5-fluoromethyl-[1,2,4]triazol-1-yl)-N-(1-pyrazin-2-yl-ethyl)-benzamide], the Ki on rat P2X3 receptor was 31.6 nM; on human P2X2/3 receptor (setting [1]), 2950 nM.

For `COCc1ncnn1-c1cc(C(=O)NC(C)c2cnccn2)cc(-c2ccc(C)cc2)c1` (stereo not drawn) [Compound 46, 5-(5-Methoxymethyl-[1,2,4]triazol-1-yl)-4′-methyl-biphenyl-3-carboxylic acid (1-pyrazin-2-yl-ethyl)-amide], the values for the Ki at rat P2X3 receptor and on human P2X2/3 receptor (setting [1]) were 5.13 nM and 204 nM, respectively.

With `Cc1ccc(-c2cc(C(=O)NCc3ncc(C)cn3)cc(-n3ncnc3C(F)(F)F)c2)nc1` [Compound 171, 3-(5-Methyl-pyridin-2-yl)-N-(5-methyl-pyrimidin-2-ylmethyl)-5-(5-trifluoromethyl-[1,2,4]triazol-1-yl)-benzamide], the values for the Ki on rat P2X3 receptor and at human P2X2/3 receptor (setting [1]) were 16.6 nM and 209 nM, respectively.

Take `CCc1ncnn1-c1cc(C(=O)NC2CC2)cc(-c2ccc(C)cn2)c1` [Compound 126, N-Cyclopropyl-3-(5-ethyl-[1,2,4]triazol-1-yl)-5-(5-methyl-pyridin-2-yl)-benzamide]: the Ki is 29.5 nM at rat P2X3 receptor and 3720 nM on human P2X2/3 receptor (setting [1]).

Take `CCc1ncnn1-c1cc(C(=O)N[C@@H](C)CO)cc(-c2ccc(Cl)cn2)c1` [Compound 107, 3-(5-Chloro-pyridin-2-yl)-5-(5-ethyl-[1,2,4]triazol-1-yl)-N-((S)-2-hydroxy-1-methyl-ethyl)-benzamide]: the Ki at rat P2X3 receptor is 148 nM; on human P2X2/3 receptor (setting [1]), 10000 nM.

In the case of `C[C@@H](CO)NC(=O)c1cc(-c2ccc(Cl)cn2)cc(-n2ncnc2C(C)(C)C)c1` [Compound 85, 3-(5-tert-Butyl-[1,2,4]triazol-1-yl)-5-(5-chloro-pyridin-2-yl)-N-((S)-2-hydroxy-1-methyl-ethyl)-benzamide], the figures for the Ki at rat P2X3 receptor and on human P2X2/3 receptor (setting [1]) were 41.7 nM and 3550 nM, respectively.
